Results reported in ChEMBL document CHEMBL5303573, “Mapping human microbiome drug metabolism by gut bacteria and their genes” (Nature, 2019).

Key:
[1] = The drug is tested on Bacteroides uniformis strain: ATCC8492 for biotransformation. The drug concentrations were measured before and after a 12-h incubation by liquid-chromatography-coupled mass spectrometry (LC–MS); conditions: 2 µM
[2] = The drug is tested on Anaerococcus hydrogenalis strain: DSM7454 for biotransformation. The drug concentrations were measured before and after a 12-h incubation by liquid-chromatography-coupled mass spectrometry (LC–MS); conditions: 2 µM
[3] = The drug is tested on the gut metagenome community of MV06 with ENA study accession number: PRJEB31790 and ENA sample accession number: SAMEA5537487 for biotransformation. The drug concentrations were measured over 9 timepoints collected between 0 and 24 hours of incubation by liquid-chromatography-coupled mass spectrometry (LC–MS); format: ADME; design: dose 2 uM, timepoint 0, 1, 2, 4, 6, 8, 12, 18, 24 hours; conditions: 2 µM
[4] = The drug is tested on the gut metagenome community of MV07 with ENA study accession number: PRJEB31790 and ENA sample accession number: SAMEA5537488 for biotransformation. The drug concentrations were measured over 9 timepoints collected between 0 and 24 hours of incubation by liquid-chromatography-coupled mass spectrometry (LC–MS); format: ADME; design: dose 2 uM, timepoint 0, 1, 2, 4, 6, 8, 12, 18, 24 hours; conditions: 2 µM
[5] = The drug is tested on the gut metagenome community of MV17 with ENA study accession number: PRJEB31790 and ENA sample accession number: SAMEA5537498 for biotransformation. The drug concentrations were measured over 9 timepoints collected between 0 and 24 hours of incubation by liquid-chromatography-coupled mass spectrometry (LC–MS); format: ADME; design: dose 2 uM, timepoint 0, 1, 2, 4, 6, 8, 12, 18, 24 hours; conditions: 2 µM
[6] = The drug is tested on the gut metagenome community of MV18 with ENA study accession number: PRJEB31790 and ENA sample accession number: SAMEA5537499 for biotransformation. The drug concentrations were measured over 9 timepoints collected between 0 and 24 hours of incubation by liquid-chromatography-coupled mass spectrometry (LC–MS); format: ADME; design: dose 2 uM, timepoint 0, 1, 2, 4, 6, 8, 12, 18, 24 hours; conditions: 2 µM
[7] = The drug is tested on the gut metagenome community of MV19 with ENA study accession number: PRJEB31790 and ENA sample accession number: SAMEA5537500 for biotransformation. The drug concentrations were measured over 9 timepoints collected between 0 and 24 hours of incubation by liquid-chromatography-coupled mass spectrometry (LC–MS); format: ADME; design: dose 2 uM, timepoint 0, 1, 2, 4, 6, 8, 12, 18, 24 hours; conditions: 2 µM
[8] = The drug is tested on the gut metagenome community of MV23 with ENA study accession number: PRJEB31790 and ENA sample accession number: SAMEA5537504 for biotransformation. The drug concentrations were measured over 9 timepoints collected between 0 and 24 hours of incubation by liquid-chromatography-coupled mass spectrometry (LC–MS); format: ADME; design: dose 2 uM, timepoint 0, 1, 2, 4, 6, 8, 12, 18, 24 hours; conditions: 2 µM
[9] = The drug is tested on the gut metagenome community of MV25 with ENA study accession number: PRJEB31790 and ENA sample accession number: SAMEA5537506 for biotransformation. The drug concentrations were measured over 9 timepoints collected between 0 and 24 hours of incubation by liquid-chromatography-coupled mass spectrometry (LC–MS); format: ADME; design: dose 2 uM, timepoint 0, 1, 2, 4, 6, 8, 12, 18, 24 hours; conditions: 2 µM
[10] = bacteroides eggerthii, 12 h, 2 µM
Description: The drug is tested on Bacteroides eggerthii strain: DSM20697 for biotransformation. The drug concentrations were measured before and after a 12-h incubation by liquid-chromatography-coupled mass spectrometry (LC–MS)

[11] = bacteroides fragilis, 12 h, 2 µM
Description: The drug is tested on Bacteroides fragilis strain: DS-208 for biotransformation. The drug concentrations were measured before and after a 12-h incubation by liquid-chromatography-coupled mass spectrometry (LC–MS)

[12] = bacteroides thetaiotaomicron, 12 h, 2 µM
Description: The drug is tested on Bacteroides thetaiotaomicron strain: 7330 for biotransformation. The drug concentrations were measured before and after a 12-h incubation by liquid-chromatography-coupled mass spectrometry (LC–MS)

[13] = victivallis vadensis, 12 h, 2 µM
Description: The drug is tested on Victivallis vadensis strain: ATCC BAA-548 for biotransformation. The drug concentrations were measured before and after a 12-h incubation by liquid-chromatography-coupled mass spectrometry (LC–MS)

[14] = The drug is tested on Eggerthella lenta strain: ATCC25559 for biotransformation. The drug concentrations were measured before and after a 12-h incubation by liquid-chromatography-coupled mass spectrometry (LC–MS); conditions: 2 µM
[15] = The drug is tested on Bacteroides fragilis strain: T(B)9 for biotransformation. The drug concentrations were measured before and after a 12-h incubation by liquid-chromatography-coupled mass spectrometry (LC–MS); conditions: 2 µM
[16] = The drug is tested on Clostridium hathewayi strain: DSM13479 for biotransformation. The drug concentrations were measured before and after a 12-h incubation by liquid-chromatography-coupled mass spectrometry (LC–MS); conditions: hungatella hathewayi, 2 µM
[17] = The drug is tested on Clostridium spiroforme strain: DSM1552 for biotransformation. The drug concentrations were measured before and after a 12-h incubation by liquid-chromatography-coupled mass spectrometry (LC–MS); conditions: thomasclavelia spiroformis, 2 µM
[18] = The drug is tested on Eubacterium biforme strain: DSM3989 for biotransformation. The drug concentrations were measured before and after a 12-h incubation by liquid-chromatography-coupled mass spectrometry (LC–MS); conditions: holdemanella biformis, 2 µM
[19] = The drug is tested on Providencia alcalifaciens strain: DSM30120 for biotransformation. The drug concentrations were measured before and after a 12-h incubation by liquid-chromatography-coupled mass spectrometry (LC–MS); conditions: 2 µM
[20] = clostridioides difficile, 12 h, 2 µM
Description: The drug is tested on Clostridium difficile strain: 120 for biotransformation. The drug concentrations were measured before and after a 12-h incubation by liquid-chromatography-coupled mass spectrometry (LC–MS)

Row | SMILES | Bacterial Biotransformation [1] | Bacterial Biotransformation [2] | Bacterial Biotransformation [3] | Bacterial Biotransformation [4] | Bacterial Biotransformation [5] | Bacterial Biotransformation [6] | Bacterial Biotransformation [7] | Bacterial Biotransformation [8] | Bacterial Biotransformation [9] | Bacterial Biotransformation [10] | Bacterial Biotransformation [11] | Bacterial Biotransformation [12] | Bacterial Biotransformation [13] | Bacterial Biotransformation [14] | Bacterial Biotransformation [15] | Bacterial Biotransformation [16] | Bacterial Biotransformation [17] | Bacterial Biotransformation [18] | Bacterial Biotransformation [19] | Bacterial Biotransformation [20]
1 | CC(=O)OCC(CCn1cnc2cnc(N)nc21)COC(C)=O [FAMCICLOVIR] | Compound metabolized | Compound NOT metabolized | Compound metabolized | Compound metabolized | Compound metabolized | Compound metabolized | Compound NOT metabolized | Compound metabolized | Compound metabolized | Compound metabolized | Compound metabolized | Compound metabolized | Compound metabolized |  |  |  |  |  |  | 
2 | C#C[C@]1(OC(C)=O)CC[C@H]2[C@@H]3CCC4=CC(=O)CC[C@@H]4[C@H]3CC[C@@]21C [NORETHINDRONE ACETATE] | Compound metabolized | Compound NOT metabolized | Compound metabolized | Compound metabolized | Compound metabolized | Compound metabolized | Compound NOT metabolized | Compound metabolized | Compound metabolized | Compound metabolized | Compound metabolized | Compound metabolized | Compound NOT metabolized |  |  |  |  |  |  | 
3 | COc1ccc([C@@H]2Sc3ccccc3N(CCN(C)C)C(=O)[C@@H]2OC(C)=O)cc1 [DILTIAZEM] | Compound metabolized | Compound NOT metabolized | Compound NOT metabolized | Compound NOT metabolized | Compound NOT metabolized | Compound NOT metabolized | Compound NOT metabolized | Compound NOT metabolized | Compound NOT metabolized | Compound NOT metabolized | Compound NOT metabolized | Compound metabolized | Compound metabolized | Compound metabolized |  |  |  |  |  | 
4 | CNCC[C@H](Oc1cccc2ccccc12)c1cccs1 [DULOXETINE] | Compound metabolized | Compound NOT metabolized |  |  |  |  |  |  |  | Compound NOT metabolized | Compound NOT metabolized |  | Compound NOT metabolized | Compound NOT metabolized | Compound metabolized | Compound NOT metabolized | Compound NOT metabolized | Compound NOT metabolized | Compound metabolized | Compound metabolized
